In one experiment the test system is E. coli. Nature of the experiment: Biofilm growth assay (spreading biofilm on semi-solid agar). Conditions: Escherichia coli. It counts as cell-based. In outline: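 Spreading (swarming) biofilm on semi-solid agar: E. coli on LB with 0.6% agar and 0.5% glucose; P. aeruginosa on M8 agar with 0.2% glucose, 100 µM CaCl2, 1 mM MgSO4, 0.5% Casamino acids. Compound in medium; 5 µL overnight culture spotted centrally, 37°C overnight. Value: concentration (µg/ml) giving ≥85% reduction in spread area versus negative control.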

The subject of the next experiment is P. aeruginosa. Described as above. It counts as cell-based. Conditions: Pseudomonas aeruginosa.
The mark [1] stands for this setting: Table 3, concentration that reduces the area of the spreading biofilm by >= 85%, read-out: E. coli.
Setting [2] is: Table 3, concentration that reduces the area of the spreading biofilm by >= 85%, read-out: P. aeruginosa.
[3] abbreviates: Table 1, concentration that reduces the area of the spreading biofilm vs negative controls by >= 85%, > means not effective at this concentration, read-out: E. coli.
The mark [4] stands for this setting: Table 1, concentration that reduces the area of the spreading biofilm vs negative controls by >= 85%, > means not effective at this concentration, read-out: P. aeruginosa.
[5] abbreviates: Table 2, concentration that reduces the area of the spreading biofilm by >= 85%, read-out: E. coli.
Where [6] appears, read: Table 2, concentration that reduces the area of the spreading biofilm by >= 85%, read-out: P. aeruginosa.
[7] abbreviates: Table 4, concentration that reduces the area of the spreading biofilm by >= 85%, read-out: E. coli.
The mark [8] stands for this setting: Table 4, concentration that reduces the area of the spreading biofilm by >= 85%, read-out: P. aeruginosa.

From patent EP2712863B1, “Novel inhibitors of bacterial biofilms and related methods” (Sequoia Sciences, Inc., priority 2012, dated 2014) come the findings set out here.

≈ marks a conversion by molar mass, not a printed value. Where two headings read alike, the source gives them in different places. Bounds are passed on as bounds.

With `Cc1ccc(C2=C3C4CC(C)(C)CC[C@]4(C(=O)O)CC[C@@]3(C)[C@]3(C)CCC4C(C)(C)c5n[nH]c(N)c5C[C@]4(C)C3C2)cc1N` (stereo partly drawn) [Compound 20, (4aS,6aS,6bR,13aR)-12-Amino-15-(3-amino-4-methylphenyl)-2,2,6a,6b,9,9,13a-heptamethyl-2,3,4,4a,5,6,6a,6b,7,8,8a,9,11,13,13a,13b,14,15b-octadecahydro-1H-chryseno[1,2-f]indazole-4a-carboxylic acid], the values for the IC85 with E. coli (setting [1]) and in the experiment with P. aeruginosa (setting [2]) were 2 µg/mL (≈ 3.34 µM) and 0.5 µg/mL (≈ 0.835 µM), respectively.

For `CC1(C)CC[C@]2(C(=O)O)CC[C@]3(C)C(=C(c4ccc(N5CCOCC5)nc4)CC4[C@@]5(C)Cc6c(n[nH]c6N)C(C)(C)[C@@H]5CC[C@]43C)[C@@H]2C1` (stereo partly drawn) [Compound 54, (4aS,6aS,6bR,8aR,13aR,15bS)-12-Amino-2,2,6a,6b,9,9,13a-heptamethyl-15-(6-morpholinopyridin-3-yl)-2,3,4,4a,5,6,6a,6b,7,8,8a,9,11,13,13a,13b,14,15b-octadecahydro-1H-chryseno[1,2-f]indazole-4a-carboxylic acid], the figures for the IC85 in the experiment on E. coli (setting [1]) and with P. aeruginosa (setting [2]) were 2 µg/mL (≈ 3.05 µM) and 1 µg/mL (≈ 1.52 µM), respectively.

As to `C=CC1=C2[C@@H]3CC(C)(C)CC[C@]3(C(=O)O)CC[C@@]2(C)[C@]2(C)CC[C@H]3C(C)(C)c4n[nH]c(N)c4C[C@]3(C)C2C1` (stereo partly drawn) [Compound 13, (4aS,6aS,6bR,8aR,13aR,15bS)-12-Amino-2,2,6a,6b,9,9,13a-heptamethyl-15-vinyl-2,3,4,4a,5,6,6a,6b,7,8,8a,9,11,13,13a,13b,14,15b-octadecahydro-1H-chryseno[1,2-f]indazole-4a-carboxylic acid], the IC85 came out at 1 µg/mL (≈ 1.92 µM) in the experiment with E. coli (setting [1]) and 0.5 µg/mL (≈ 0.962 µM) in the experiment with P. aeruginosa (setting [2]).

As to `CC1(C)CC[C@]2(C(=O)O)CC[C@]3(C)C(=C(c4cccc(CN)c4)CC4[C@@]5(C)Cc6c(n[nH]c6N)C(C)(C)C5CC[C@]43C)C2C1` (stereo partly drawn) [Compound 18, (4aS,6aS,6bR,13aR)-12-Amino-15-(3-(aminomethyl)phenyl)-2,2,6a,6b,9,9,13a-heptamethyl-2,3,4,4a,5,6,6a,6b,7,8,8a,9,11,13,13a,13b,14,15b-octadecahydro-1H-chryseno[1,2-f]indazole-4a-carboxylic acid], the IC85 in the experiment with E. coli (setting [1]) is 1 µg/mL (≈ 1.67 µM); with P. aeruginosa (setting [2]), 0.5 µg/mL (≈ 0.835 µM).

With `CC1(C)CC[C@]2(C(=O)O)CC[C@]3(C)C(=C(c4cccc5[nH]ccc45)CC4[C@@]5(C)Cc6c(n[nH]c6N)C(C)(C)C5CC[C@]43C)C2C1` (stereo partly drawn) [Compound 48, (4aS,6aS,6bR,13aR)-12-Amino-15-(1H-indol-4-yl)-2,2,6a,6b,9,9,13a-heptamethyl-2,3,4,4a,5,6,6a,6b,7,8,8a,9,11,13,13a,13b,14,15b-octadecahydro-1H-chryseno[1,2-f]indazole-4a-carboxylic acid], the IC85 in the experiment on E. coli (setting [1]) stood at 1 µg/mL (≈ 1.64 µM); with P. aeruginosa (setting [2]), 0.5 µg/mL (≈ 0.821 µM).

Regarding `CN1CCN(c2c([C@]34CCC(C)(C)CC3C3=CCC5[C@@]6(C)Cc7c(n[nH]c7N)C(C)(C)C6CC[C@@]5(C)[C@]3(C)CC4)n[nH]c2O)CC1` (stereo partly drawn) [Compound 89, 3-((4aS,6aS,6bR,13aR)-12-Amino-2,2,6a,6b,9,9,13a-heptamethyl-2,3,4,4a,5,6,6a,6b,7,8,8a,9,11,13,13a,13b,14,15b-octadecahydro-1H-chryseno[1,2-f]indazol-4a-yl)-4-(4-methylpiperazin-1-yl)-1H-pyrazol-5-ol], the IC85 with E. coli (read-out: E. coli (µg/ml)) and with P. aeruginosa (read-out: P. aeruginosa (µg/ml)) was 1 µg/mL (≈ 1.59 µM) throughout.

As to `CC1(C)CC[C@]2(C(=O)O)CC[C@]3(C)C(=CCC4[C@@]5(C)Cc6c(n[nH]c6Br)C(C)(C)C5CC[C@]43C)C2C1` (stereo partly drawn) [H], the IC85 with E. coli (setting [3]) is greater than 8 µg/mL; with P. aeruginosa (setting [4]) it was 8 µg/mL (≈ 14.3 µM).

Turning to `CC1(C)CC[C@]2(C(=O)O)CC[C@]3(C)C(=CC[C@@H]4[C@@]5(C)Cc6c(noc6N)C(C)(C)[C@@H]5CC[C@]43C)[C@@H]2C1` [K], the IC85 in the experiment with E. coli (setting [3]) and with P. aeruginosa (setting [4]) was greater than 8 µg/mL each time.

Turning to `CC1(C)CC[C@]2(C(=O)O)CC[C@]3(C)C(=C(c4c[nH]c5ccccc45)CC4[C@@]5(C)Cc6c(n[nH]c6N)C(C)(C)[C@@H]5CC[C@]43C)[C@@H]2C1` (stereo partly drawn) [Compound 8, (4aS,6aS,6bR,8aR,13aR,15bS)-12-Amino-15-(1H-indol-3-yl)-2,2,6a,6b,9,9,13a-heptamethyl-2,3,4,4a,5,6,6a,6b,7,8,8a,9,11,13,13a,13b,14,15b-octadecahydro-1H-chryseno[1,2-f]indazole-4a-carboxylic acid], the IC85 in the experiment on E. coli (setting [5]) is 1 µg/mL (≈ 1.64 µM); with P. aeruginosa (setting [6]), 0.25 µg/mL (≈ 0.411 µM).

For the molecule `CC1(C)CC[C@]2(C(=O)O)CC[C@]3(C)C(=C(c4c[nH]c(CN5CCOCC5)c4)CC4[C@@]5(C)Cc6c(n[nH]c6N)C(C)(C)[C@@H]5CC[C@]43C)[C@@H]2C1` (stereo partly drawn) [Compound 9, (4aS,6aS,6bR,8aR,13aR,15bS)-12-Amino-2,2,6a,6b,9,9,13a-heptamethyl-15-(5-(morpholinomethyl)-1H-pyrrol-3-yl)-2,3,4,4a,5,6,6a,6b,7,8,8a,9,11,13,13a,13b,14,15b-octadecahydro-1H-chryseno[1,2-f]indazole-4a-carboxylic acid], the values for the IC85 with E. coli (setting [5]) and in the experiment with P. aeruginosa (setting [6]) were 1 µg/mL (≈ 1.52 µM) and 0.5 µg/mL (≈ 0.76 µM), respectively.

In the case of `Cc1nnc(S)n1NC(=O)[C@]12CCC(C)(C)CC1C1=CCC3[C@@]4(C)Cc5c(n[nH]c5N)C(C)(C)C4CC[C@@]3(C)[C@]1(C)CC2` (stereo partly drawn) [Compound 77, (4aS,6aS,6bR,13aR)-12-Amino-N-(3-mercapto-5-methyl-4H-1,2,4-triazol-4-yl)-2,2,6a,6b,9,9,13a-heptamethyl-2,3,4,4a,5,6,6a,6b,7,8,8a,9,11,13,13a,13b,14,15b-octadecahydro-1H-chryseno[1,2-f]indazole-4a-carboxamide], the results for the IC85 with E. coli (setting [7]) and in the experiment with P. aeruginosa (setting [8]) were 2 µg/mL (≈ 3.3 µM) and 1 µg/mL (≈ 1.65 µM), respectively.

As for `CC1(C)CC[C@]2(c3n[nH]c(O)c3N3CCOCC3)CC[C@]3(C)C(=CCC4[C@@]5(C)Cc6c(n[nH]c6N)C(C)(C)C5CC[C@]43C)C2C1` (stereo partly drawn) [Compound 88, 3-((4aS,6aS,6bR,13aR)-12-Amino-2,2,6a,6b,9,9,13a-heptamethyl-2,3,4,4a,5,6,6a,6b,7,8,8a,9,11,13,13a,13b,14,15b-octadecahydro-1H-chryseno[1,2-f]indazol-4a-yl)-4-morpholino-1H-pyrazol-5-ol], the IC85 was 0.5 µg/mL (≈ 0.811 µM) in the experiment with E. coli (setting [7]) and 0.25 µg/mL (≈ 0.405 µM) in the experiment on P. aeruginosa (setting [8]).

As to `CC1(C)CC[C@]2(C(=O)NO)CC[C@]3(C)C(=CCC4[C@@]5(C)Cc6c(n[nH]c6N)C(C)(C)C5CC[C@]43C)C2C1` (stereo partly drawn) [Compound 65, (4aS,6aS,6bR,13aR)-12-Amino-N-hydroxy-2,2,6a,6b,9,9,13a-heptamethyl-2,3,4,4a,5,6,6a,6b,7,8,8a,9,11,13,13a,13b,14,15b-octadecahydro-1H-chryseno[1,2-f]indazole-4a-carboxamide], the IC85 in the experiment with E. coli (setting [7]) and in the experiment on P. aeruginosa (setting [8]) was 0.25 µg/mL (≈ 0.491 µM) in each case.

For the molecule `CC1(C)CC[C@]2(C(=O)O)CC[C@]3(C)C(=C(c4cccc5c4CCNC5)CC4[C@@]5(C)Cc6c(n[nH]c6N)C(C)(C)C5CC[C@]43C)C2C1` (stereo partly drawn) [Compound 47, (4aS,6aS,6bR,13aR)-12-Amino-2,2,6a,6b,9,9,13a-heptamethyl-15-(1,2,3,4-tetrahydroisoquinolin-5-yl)-2,3,4,4a,5,6,6a,6b,7,8,8a,9,11,13,13a,13b,14,15b-octadecahydro-1H-chryseno[1,2-f]indazole-4a-carboxylic acid], the IC85 turned out to be 1 µg/mL (≈ 1.6 µM) in the experiment on E. coli (setting [1]) and 0.5 µg/mL (≈ 0.8 µM) in the experiment with P. aeruginosa (setting [2]).

`CC1(C)CC[C@]2(C(=O)O)CC[C@]3(C)C(=CCC4[C@@]5(C)Cc6cc[nH]c6C(C)(C)C5CC[C@]43C)C2C1` (stereo partly drawn) [C]: the IC85 with E. coli (setting [3]) and in the experiment with P. aeruginosa (setting [4]) was 0.5 µg/mL (≈ 1.05 µM) each time.

For `CC1(C)CC[C@]2(C(=O)O)CC[C@]3(C)C(=C(c4ccc(N5CCNCC5)nc4)CC4[C@@]5(C)Cc6c(n[nH]c6N)C(C)(C)C5CC[C@]43C)C2C1` (stereo partly drawn) [Compound 55, (4aS,6aS,6bR,13aR)-12-Amino-2,2,6a,6b,9,9,13a-heptamethyl-15-(6-(piperazin-1-yl)pyridin-3-yl)-2,3,4,4a,5,6,6a,6b,7,8,8a,9,11,13,13a,13b,14,15b-octadecahydro-1H-chryseno[1,2-f]indazole-4a-carboxylic acid], the IC85 was 2 µg/mL (≈ 3.05 µM) in the experiment with E. coli (setting [1]) and greater than 1 µg/mL in the experiment with P. aeruginosa (setting [2]).

With `CC1(C)CC[C@]2(C(=O)n3cnc(S)n3)CC[C@]3(C)C(=CCC4[C@@]5(C)Cc6c(n[nH]c6N)C(C)(C)C5CC[C@]43C)C2C1` (stereo partly drawn) [Compound 76, ((4aS,6aS,6bR,13aR)-12-Amino-2,2,6a,6b,9,9,13a-heptamethyl-2,3,4,4a,5,6,6a,6b,7,8,8a,9,11,13,13a,13b,14,15b-octadecahydro-1H-chryseno[1,2-f]indazol-4a-yl)(3-mercapto-1H-1,2,4-triazol-1-yl)methanone], the IC85 in the experiment with E. coli (setting [7]) came to 2 µg/mL (≈ 3.47 µM); with P. aeruginosa (setting [8]), 0.5 µg/mL (≈ 0.867 µM).

For `CN1CCN(c2ccc(C3=C4C5CC(C)(C)CC[C@]5(C(=O)O)CC[C@@]4(C)[C@]4(C)CCC5C(C)(C)c6n[nH]c(N)c6C[C@]5(C)C4C3)cn2)CC1` (stereo partly drawn) [Compound 56, (4aS,6aS,6bR,13aR)-12-Amino-2,2,6a,6b,9,9,13a-heptamethyl-15-(6-(4-methylpiperazin-1-yl)pyridin-3-yl)-2,3,4,4a,5,6,6a,6b,7,8,8a,9,11,13,13a,13b,14,15b-octadecahydro-1H-chryseno[1,2-f]indazole-4a-carboxylic acid], the IC85 in the experiment on E. coli (setting [1]) is 2 µg/mL (≈ 2.99 µM); in the experiment with P. aeruginosa (setting [2]) it was 1 µg/mL (≈ 1.49 µM).
